Laboratory results published in US11992012B2, “Diaminotriazine compounds” (BASF SE, priority 2018, dated 2024).

Tests used:
Type in all cases: in vivo
Abutilon theophrasti [1] = test: greenhouse post-emergence herbicidal test; conditions: scale 0 to 100
Description: (§1) The culture containers used were plastic flowerpots containing loamy sand with approximately 3.0% of humus as the substrate. The seeds of the test plants were sown separately for each species.
(§2) For the post-emergence treatment, the test plants were first grown to a height of 3 to 15 cm, depending on the plant habit, and only then treated with the active ingredients which had been suspended or emulsified in water. For this purpose, the test plants were either sown directly and grown in the same containers, or they were first grown separately as seedlings and transplanted into the test containers a few days prior to treatment.
(§3) Depending on the species, the plants were kept at 10-25° C. or 20-35° C., respectively.
(§4) The test period extended over 2 to 4 weeks. During this time, the plants were tended, and their response to the individual treatments was evaluated.
(§5) Evaluation was carried out using a scale from 0 to 100. 100 means no emergence of the plants, or complete destruction of at least the aerial moieties, and 0 means no damage, or normal course of growth. A moderate herbicidal activity is given at values of at least 60, a good herbicidal activity is given at values of at least 70, and a very good herbicidal activity is given at values of at least 85.

Echinocloa crus-galli [2] = test: greenhouse post-emergence herbicidal test; conditions: 125 g/ha, scale 0 to 100
Description: as §1, §2, §3, §4, §5

Setaria viridis = test: greenhouse post-emergence herbicidal test; conditions: 125 g/ha, scale 0 to 100
Description: as §1, §2, §3, §4, §5

Echinocloa crus-galli [3] = test: greenhouse pre-emergence herbicidal test; conditions: 250 g/ha, scale 0 to 100
How it was run: (§6)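 Seeds sown in loamy sand (~3.0% humus); compounds suspended or emulsified in water, sprayed directly after sowing, pots covered until rooting. Kept at 10-25° C. or 20-35° C. by species for 2 to 4 weeks. Damage scored visually 0-100 (100 = no emergence or complete aerial destruction).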

Lolium multiflorum = test: greenhouse pre-emergence herbicidal test; conditions: 250 g/ha, scale 0 to 100
How it was run: as §6

Alopercurus myosuroides = test: greenhouse pre-emergence herbicidal test; conditions: 250 g/ha, scale 0 to 100
How it was run: as §6

Abutilon theophrasti [4] = test: greenhouse pre-emergence herbicidal test; conditions: 250 g/ha, scale 0 to 100
How it was run: (§7)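 Compounds suspended or emulsified in water were sprayed onto loamy sand (about 3.0% humus) right after sowing; pots were hooded until rooting. Damage was scored on a 0–100 scale (100 = no emergence or complete aerial destruction, 0 = normal growth) after 2 to 4 weeks.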

Setaria faberi = test: greenhouse pre-emergence herbicidal test; conditions: 250 g/ha, scale 0 to 100
How it was run: as §7

Apera spica-venti = test: greenhouse pre-emergence herbicidal test; conditions: 250 g/ha, scale 0 to 100
How it was run: as §6

Amaranthus retroflexus [5] = test: greenhouse post-emergence herbicidal test; conditions: 250 g/ha, scale 0 to 100
Description: as §1, §2, §3, §4, §5

Amaranthus retroflexus [6] = test: greenhouse pre-emergence herbicidal test; conditions: 250 g/ha, scale 0 to 100
How it was run: as §6

SMILES | herbicidal activity (Echinocloa crus-galli [3]) [%] | herbicidal activity (Alopercurus myosuroides) [%] | herbicidal activity (Abutilon theophrasti [4]) [%] | herbicidal activity (Setaria faberi) [%] | also measured
CC(C)(F)c1nc(N)nc(Nc2c(F)cccc2OCc2ccccc2[N+](=O)[O-])n1 [Example 28] | – | – | – | – | herbicidal activity (Abutilon theophrasti [1]; 125 g/ha): 75%; herbicidal activity (Echinocloa crus-galli [2]): 85%; herbicidal activity (Setaria viridis): 75%
Cc1ccc(COc2cccc(F)c2Nc2nc(N)nc(C(C)(C)F)n2)cc1F [Example 56] | 95 | – | – | – | herbicidal activity (Lolium multiflorum): 100%
CC(C)(F)c1nc(N)nc(Nc2c(Cl)cccc2OCc2ccccc2)n1 [Example 85] | – | 70 | 90 | 70 | –
Cc1cscc1COc1cccc(F)c1Nc1nc(N)nc(C(C)(C)F)n1 [Example 111] | 85 | – | – | – | herbicidal activity (Apera spica-venti): 80%; herbicidal activity (Abutilon theophrasti [1]; 250 g/ha): 100%; herbicidal activity (Amaranthus retroflexus [5]): 100%
CC(C)(F)c1nc(N)nc(Nc2c(F)cccc2OCc2cc(Cl)sc2Cl)n1 [Example 112] | 80 | – | – | – | herbicidal activity (Apera spica-venti): 80%; herbicidal activity (Abutilon theophrasti [1]; 250 g/ha): 100%; herbicidal activity (Amaranthus retroflexus [5]): 100%
CC(C)(F)c1nc(N)nc(Nc2c(F)cccc2OCc2ccsc2C#N)n1 [Example 121] | – | – | – | – | herbicidal activity (Amaranthus retroflexus [6]): 80%; herbicidal activity (Abutilon theophrasti [1]; 250 g/ha): 100%; herbicidal activity (Amaranthus retroflexus [5]): 100%
Cc1cc(COc2cccc(F)c2Nc2nc(N)nc(C(C)(C)F)n2)c(C)s1 [Example 125] | 100 | – | – | – | herbicidal activity (Apera spica-venti): 85%
CC(C)(F)c1nc(N)nc(Nc2c(F)cccc2OCc2cccc(OCC(F)(F)F)c2)n1 [Example 134] | 90 | – | – | 90 | herbicidal activity (Apera spica-venti): 95%
CC(C)(F)c1nc(N)nc(Nc2c(F)cccc2OCc2cccc(OC(F)(F)F)c2)n1 [Example 136] | 85 | – | – | 80 | herbicidal activity (Apera spica-venti): 80%
CC(C)(F)c1nc(N)nc(Nc2c(F)c(F)cc(F)c2OCc2c(F)cccc2F)n1 [Example 165] | 100 | 100 | 100 | – | –
CC(C)(F)c1nc(N)nc(Nc2c(F)ccc(F)c2OCc2c(F)cccc2F)n1 [Example 167] | – | 100 | 100 | 100 | –
CC(C)(F)c1nc(N)nc(Nc2c(F)cc(F)c(F)c2OCc2ccccc2)n1 [Example 188] | 100 | 100 | 100 | – | –
Nc1nc(Nc2c(F)c(F)cc(F)c2OCc2ccccc2)nc(C2(F)CCCC2)n1 [Example 199] | 100 | 100 | 100 | – | –
CC(C)(F)c1nc(N)nc(Nc2c(F)c(F)cc(F)c2OCc2cccc(F)c2)n1 [Example 204] | 100 | 100 | 100 | 100 | –
CC(C)(F)c1nc(N)nc(Nc2c(F)c(F)cc(F)c2OCc2ccccc2Cl)n1 [Example 206] | 100 | 100 | 100 | 100 | –
COc1ccccc1COc1c(F)cc(F)c(F)c1Nc1nc(N)nc(C(C)(C)OC)n1 [Example 214] | – | 98 | 100 | 90 | –
CCc1ccc(COc2c(F)cc(F)c(F)c2Nc2nc(N)nc(C(C)(C)F)n2)cc1 [Example 216] | – | 98 | 100 | 100 | –
COC(C)(C)c1nc(N)nc(Nc2c(F)c(F)cc(F)c2OCc2ccccc2C)n1 [Example 226] | 100 | 100 | 90 | – | –
COC(C)(C)c1nc(N)nc(Nc2c(F)c(F)cc(F)c2OCc2ccc(C)cc2)n1 [Example 228] | 90 | 100 | 100 | – | –
Cc1ccccc1COc1c(F)cc(F)c(F)c1Nc1nc(N)nc(C(C)F)n1 (centres unmarked) [Example 229] | 100 | 100 | 100 | – | –
Cc1ccc(COc2c(F)cc(F)c(F)c2Nc2nc(N)nc(C(C)F)n2)cc1 (centres unmarked) [Example 231] | 98 | 98 | 98 | – | –
CC(C)CC(F)c1nc(N)nc(Nc2c(F)cccc2OCc2ccccc2)n1 (centres unmarked) [Example 233] | 95 | 80 | 75 | – | –
CC(C)(F)c1nc(N)nc(Nc2c(F)c(F)cc(Cl)c2OCc2ccccc2)n1 [Example 234] | 100 | 90 | 100 | – | –
CC(C)(F)c1nc(N)nc(Nc2c(F)c(F)c(F)c(F)c2OCc2ccccc2)n1 [Example 236] | 100 | 95 | 100 | – | –
